Reference: patent US10870647B2, “Imidazopyridine derivative, method for preparing same, and pharmaceutical composition containing same as active ingredient for preventing or treating cancer” (DAEGU-GYEONGBUK MEDICAL INNOVATION FOUNDATION, priority 2016, dated 2020)
Where two headings read alike, the source gives them in different places.

Assays:
Assay in all cases: Kinase selectivity, scanMAX Kinase assay panel (DiscoverX), % control at 1 uM
Assay type in all cases: binding
[1] = molecular target: T1, scanMAX Kinase assay panel (Homo sapiens, UniProt O00329); details: PIK3CD; 1 uM; read-out: Percent Control (%)
T1 construct: purchased DiscoverX
T1 sequence (O00329 1-1044): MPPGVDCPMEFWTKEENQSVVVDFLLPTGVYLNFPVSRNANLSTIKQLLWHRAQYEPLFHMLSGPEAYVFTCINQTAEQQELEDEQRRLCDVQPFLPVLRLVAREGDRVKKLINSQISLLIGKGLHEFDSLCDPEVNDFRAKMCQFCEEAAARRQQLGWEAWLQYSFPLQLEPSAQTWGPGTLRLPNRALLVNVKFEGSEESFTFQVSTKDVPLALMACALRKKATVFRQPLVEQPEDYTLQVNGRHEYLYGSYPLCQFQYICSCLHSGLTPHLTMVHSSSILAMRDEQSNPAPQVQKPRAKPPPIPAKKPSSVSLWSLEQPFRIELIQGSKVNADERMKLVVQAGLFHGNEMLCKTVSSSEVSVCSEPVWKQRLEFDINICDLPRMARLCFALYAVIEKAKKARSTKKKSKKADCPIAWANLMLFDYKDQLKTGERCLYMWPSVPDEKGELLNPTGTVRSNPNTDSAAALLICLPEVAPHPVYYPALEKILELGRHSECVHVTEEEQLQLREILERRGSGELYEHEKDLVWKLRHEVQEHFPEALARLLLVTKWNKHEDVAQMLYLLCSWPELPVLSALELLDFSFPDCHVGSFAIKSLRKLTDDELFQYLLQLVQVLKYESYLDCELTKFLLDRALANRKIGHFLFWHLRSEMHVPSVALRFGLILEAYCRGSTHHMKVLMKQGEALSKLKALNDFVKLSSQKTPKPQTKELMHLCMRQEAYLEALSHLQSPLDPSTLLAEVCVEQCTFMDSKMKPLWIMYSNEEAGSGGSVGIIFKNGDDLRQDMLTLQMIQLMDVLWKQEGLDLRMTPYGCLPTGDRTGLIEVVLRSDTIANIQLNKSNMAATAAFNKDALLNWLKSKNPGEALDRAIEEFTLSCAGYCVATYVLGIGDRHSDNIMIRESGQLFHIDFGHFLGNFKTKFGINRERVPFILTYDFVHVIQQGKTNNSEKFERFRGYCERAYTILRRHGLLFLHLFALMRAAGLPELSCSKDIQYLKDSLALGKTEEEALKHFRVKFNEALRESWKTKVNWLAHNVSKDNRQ
Outline: (§1)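 A single concentration of 1 uM, in DMSO, is applied across the kinase panel. Activity against an individual enzyme is assigned where % control is less than 35.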

[2] = molecular target: T2, scanMAX Kinase assay panel (Homo sapiens, UniProt Q15349); details: 1 uM, read-out: Percent Control (%)
T2 construct: purchased DiscoverX
Outline: as §1

[3] = molecular target: T3, scanMAX Kinase assay panel (Homo sapiens, UniProt Q07002); details: PCTK3; 1 uM; read-out: Percent Control (%)
T3 construct: purchased DiscoverX
Outline: as §1

[4] = molecular target: T4, scanMAX Kinase assay panel (Homo sapiens, UniProt Q96GD4); details: AURKB; 1 uM; read-out: Percent Control (%)
T4 construct: purchased DiscoverX
Outline: as §1

[5] = molecular target: T5, scanMAX Kinase assay panel (Homo sapiens, UniProt P54756); details: EPHA5; 1 uM; read-out: Percent Control (%)
T5 construct: purchased DiscoverX
Outline: as §1

[6] = molecular target: T6, scanMAX Kinase assay panel (Homo sapiens, UniProt Q06418); details: TYRO3; 1 uM; read-out: Percent Control (%)
T6 construct: purchased DiscoverX
T6 sequence (Q06418 41-890): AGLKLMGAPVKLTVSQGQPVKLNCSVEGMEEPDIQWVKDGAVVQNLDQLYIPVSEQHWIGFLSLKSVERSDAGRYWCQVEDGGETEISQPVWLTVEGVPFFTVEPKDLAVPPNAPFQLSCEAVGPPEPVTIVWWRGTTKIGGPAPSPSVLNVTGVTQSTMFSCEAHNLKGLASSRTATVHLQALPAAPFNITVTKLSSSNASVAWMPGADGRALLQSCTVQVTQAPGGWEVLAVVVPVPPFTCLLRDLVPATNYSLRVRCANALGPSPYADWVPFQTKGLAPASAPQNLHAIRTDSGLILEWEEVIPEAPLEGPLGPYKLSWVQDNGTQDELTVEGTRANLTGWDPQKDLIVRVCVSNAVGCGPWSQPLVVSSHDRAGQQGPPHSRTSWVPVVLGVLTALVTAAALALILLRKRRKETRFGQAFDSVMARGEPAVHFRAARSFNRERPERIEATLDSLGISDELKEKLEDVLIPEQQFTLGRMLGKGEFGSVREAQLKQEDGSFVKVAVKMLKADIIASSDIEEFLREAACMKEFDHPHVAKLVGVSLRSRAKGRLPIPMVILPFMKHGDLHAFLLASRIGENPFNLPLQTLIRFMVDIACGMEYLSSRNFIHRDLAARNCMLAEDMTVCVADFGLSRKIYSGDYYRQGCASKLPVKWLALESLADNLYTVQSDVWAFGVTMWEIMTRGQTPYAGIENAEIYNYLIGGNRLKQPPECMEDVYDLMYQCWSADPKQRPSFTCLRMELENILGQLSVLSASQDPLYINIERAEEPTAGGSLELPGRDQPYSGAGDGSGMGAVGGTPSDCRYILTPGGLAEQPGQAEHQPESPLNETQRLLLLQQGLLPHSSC
Outline: as §1

T2 sequence (Q15349 whole entry): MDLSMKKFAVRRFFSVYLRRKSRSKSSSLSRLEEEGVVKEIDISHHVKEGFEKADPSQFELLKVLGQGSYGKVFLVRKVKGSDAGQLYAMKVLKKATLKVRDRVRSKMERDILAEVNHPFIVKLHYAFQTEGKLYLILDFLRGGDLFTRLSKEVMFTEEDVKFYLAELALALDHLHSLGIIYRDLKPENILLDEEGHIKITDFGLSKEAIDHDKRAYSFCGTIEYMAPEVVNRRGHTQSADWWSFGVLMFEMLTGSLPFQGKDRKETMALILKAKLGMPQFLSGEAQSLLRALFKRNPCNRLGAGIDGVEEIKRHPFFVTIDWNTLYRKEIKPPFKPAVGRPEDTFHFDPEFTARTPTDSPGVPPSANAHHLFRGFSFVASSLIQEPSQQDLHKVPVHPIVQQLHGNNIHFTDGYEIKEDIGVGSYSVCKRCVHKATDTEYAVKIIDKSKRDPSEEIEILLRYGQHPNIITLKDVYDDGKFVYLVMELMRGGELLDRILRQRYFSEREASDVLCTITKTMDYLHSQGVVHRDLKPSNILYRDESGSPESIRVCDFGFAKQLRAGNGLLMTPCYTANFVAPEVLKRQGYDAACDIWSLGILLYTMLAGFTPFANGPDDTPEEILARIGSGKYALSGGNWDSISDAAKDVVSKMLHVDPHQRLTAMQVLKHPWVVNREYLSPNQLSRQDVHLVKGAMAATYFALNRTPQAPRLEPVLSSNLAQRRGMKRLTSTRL
T4 sequence (Q96GD4 whole entry): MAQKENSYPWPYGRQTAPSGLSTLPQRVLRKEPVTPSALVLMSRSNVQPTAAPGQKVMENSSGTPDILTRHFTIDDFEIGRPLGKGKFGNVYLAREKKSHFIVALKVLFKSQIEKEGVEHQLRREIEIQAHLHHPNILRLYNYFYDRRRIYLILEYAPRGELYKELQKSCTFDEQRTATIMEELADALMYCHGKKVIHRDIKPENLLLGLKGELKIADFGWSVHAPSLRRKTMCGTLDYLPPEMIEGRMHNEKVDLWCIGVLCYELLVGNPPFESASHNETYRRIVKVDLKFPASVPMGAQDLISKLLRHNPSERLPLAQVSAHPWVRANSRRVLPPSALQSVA
T3 sequence (Q07002 whole entry): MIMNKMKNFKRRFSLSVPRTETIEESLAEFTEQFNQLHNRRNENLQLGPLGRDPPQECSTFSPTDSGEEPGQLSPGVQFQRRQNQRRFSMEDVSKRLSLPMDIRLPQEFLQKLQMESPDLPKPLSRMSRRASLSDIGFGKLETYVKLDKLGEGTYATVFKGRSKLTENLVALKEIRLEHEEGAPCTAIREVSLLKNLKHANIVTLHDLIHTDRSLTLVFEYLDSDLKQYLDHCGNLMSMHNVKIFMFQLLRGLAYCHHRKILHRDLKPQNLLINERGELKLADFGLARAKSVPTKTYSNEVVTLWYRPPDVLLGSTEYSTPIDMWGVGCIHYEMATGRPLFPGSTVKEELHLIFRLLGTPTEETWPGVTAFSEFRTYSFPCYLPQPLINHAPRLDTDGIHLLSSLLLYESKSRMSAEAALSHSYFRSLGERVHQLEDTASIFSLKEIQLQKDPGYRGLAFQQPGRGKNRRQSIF
T5 sequence (P54756 25-1037): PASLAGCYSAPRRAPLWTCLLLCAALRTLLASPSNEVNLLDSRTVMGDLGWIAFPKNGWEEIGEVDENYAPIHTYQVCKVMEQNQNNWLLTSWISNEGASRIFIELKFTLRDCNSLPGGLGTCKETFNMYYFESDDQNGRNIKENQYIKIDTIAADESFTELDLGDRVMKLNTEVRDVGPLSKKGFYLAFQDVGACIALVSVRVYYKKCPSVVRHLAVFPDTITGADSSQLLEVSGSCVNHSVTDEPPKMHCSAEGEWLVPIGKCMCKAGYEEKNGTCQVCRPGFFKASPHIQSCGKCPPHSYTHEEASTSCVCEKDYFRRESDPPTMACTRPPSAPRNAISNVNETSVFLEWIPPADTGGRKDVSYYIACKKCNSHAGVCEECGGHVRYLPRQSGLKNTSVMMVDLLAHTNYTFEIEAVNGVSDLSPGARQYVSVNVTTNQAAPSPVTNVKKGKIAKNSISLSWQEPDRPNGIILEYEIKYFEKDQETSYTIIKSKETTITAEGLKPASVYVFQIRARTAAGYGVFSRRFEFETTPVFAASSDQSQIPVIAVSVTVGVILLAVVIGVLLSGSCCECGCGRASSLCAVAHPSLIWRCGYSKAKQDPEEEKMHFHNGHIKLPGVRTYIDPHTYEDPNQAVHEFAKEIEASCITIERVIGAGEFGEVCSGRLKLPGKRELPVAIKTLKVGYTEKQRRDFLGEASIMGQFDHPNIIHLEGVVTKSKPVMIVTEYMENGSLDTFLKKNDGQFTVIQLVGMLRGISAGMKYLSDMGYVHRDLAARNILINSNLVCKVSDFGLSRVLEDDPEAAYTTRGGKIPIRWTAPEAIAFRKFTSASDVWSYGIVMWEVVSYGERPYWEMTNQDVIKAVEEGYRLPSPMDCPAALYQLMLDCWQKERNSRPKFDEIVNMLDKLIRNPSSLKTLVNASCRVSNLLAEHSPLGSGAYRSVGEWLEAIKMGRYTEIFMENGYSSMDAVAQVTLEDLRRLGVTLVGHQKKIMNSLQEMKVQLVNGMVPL

Cc1ccc(C(=O)Nc2ccc(CN3CCN(C)CC3)c(C(F)(F)F)c2)cc1C#Cc1cnc2c(Nc3cnn(C)c3)cccn12 [Example 1, 4-methyl-3-((8-((1-methyl-1H-pyrazol-4-yl)amino)imidazo[1,2-a]pyridin-3-yl)ethynyl)-N-(4-((4-methylpiperazin-1-yl)methyl)-3-(trifluoromethyl)phenyl)benzamide]
remaining binding at 1 µM [1]: 89% | remaining binding at 1 µM ([2]; RSK3 (Kin.Dom.1-N-terminal)): 29% | remaining binding at 1 µM ([2]; RSK3 (Kin.Dom.2-C-terminal)): 61% | remaining binding at 1 µM [3]: 60% | remaining binding at 1 µM [4]: 3% | remaining binding at 1 µM [5]: 1% | remaining binding at 1 µM [6]: 21%

Cc1cn(-c2cc(NC(=O)c3ccc(C)c(C#Cc4cnc5c(Nc6cnn(C)c6)cccn45)c3)cc(C(F)(F)F)c2)cn1 [Example 12, 4-methyl-N-(3-(4-methyl-1H-imidazol-1-yl)-5-(trifluoromethyl)phenyl)-3-((8-((1-methyl-1H-pyrazol-4-yl)amino)imidazo[1,2-a]pyridin-3-yl)ethynyl)benzamide]
remaining binding at 1 µM [1]: 100% | remaining binding at 1 µM ([2]; RSK3 (Kin.Dom.1-N-terminal)): 65% | remaining binding at 1 µM ([2]; RSK3 (Kin.Dom.2-C-terminal)): 86% | remaining binding at 1 µM [3]: 84% | remaining binding at 1 µM [4]: 56% | remaining binding at 1 µM [5]: 31% | remaining binding at 1 µM [6]: 42%

Cc1ccc(NC(=O)C2(C(=O)Nc3ccc(F)cc3)CC2)cc1C#Cc1cnc2c(Nc3cnn(C(C)C)c3)cccn12 [Example 78]
remaining binding at 1 µM [1]: 100% | remaining binding at 1 µM ([2]; RSK3 (Kin.Dom.1-N-terminal)): 97% | remaining binding at 1 µM ([2]; RSK3 (Kin.Dom.2-C-terminal)): 100% | remaining binding at 1 µM [3]: 100% | remaining binding at 1 µM [4]: 34% | remaining binding at 1 µM [5]: 100% | remaining binding at 1 µM [6]: 95%
